Reference: patent publication US20230295159A1, “ATX INHIBITOR, AND PREPARATION METHOD THEREFOR AND USE THEREOF” (SUZHOU ARK BIOPHARMACEUTICAL CO., LTD., priority 2020, published 2023)
Read-outs that look alike come from different tables or passages of the source.

Columns and labels:
[1] = target: CYP3A4 (Homo sapiens (Human), UniProt P08684); assay: 3A4 subtype of CYP450 enzyme time-dependent inhibition assay (IC50 shift); type: in vitro ADME; settings: probe testosterone, 50 µM; 30 min pre-incubation with vs without NADPH, testosterone substrate, human liver microsomes
Sequence of CYP3A4 (P08684 whole entry): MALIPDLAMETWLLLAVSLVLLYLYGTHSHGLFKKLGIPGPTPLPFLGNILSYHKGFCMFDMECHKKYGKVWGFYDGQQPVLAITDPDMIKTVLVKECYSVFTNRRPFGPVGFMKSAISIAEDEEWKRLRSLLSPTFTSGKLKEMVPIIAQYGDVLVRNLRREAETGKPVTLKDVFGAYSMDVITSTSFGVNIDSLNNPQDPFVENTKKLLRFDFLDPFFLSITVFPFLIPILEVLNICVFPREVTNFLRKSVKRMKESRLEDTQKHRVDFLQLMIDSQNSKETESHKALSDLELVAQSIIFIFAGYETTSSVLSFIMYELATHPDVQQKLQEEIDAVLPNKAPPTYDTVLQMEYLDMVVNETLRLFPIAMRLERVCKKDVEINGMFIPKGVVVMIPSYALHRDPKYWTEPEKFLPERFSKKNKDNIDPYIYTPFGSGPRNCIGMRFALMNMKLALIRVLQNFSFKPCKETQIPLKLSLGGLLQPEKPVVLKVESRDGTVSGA
Experimental: The probe substrate was testosterone at a concentration of 50 µM. The reaction was terminated after incubation for 10 min. The IC50 of the compound against enzyme was calculated by measuring the relative yield of metabolite, and the IC50 shift was calculated from the IC50 results of the groups pre-incubated with and without addition of NADPH.

[2] = target: ATX enzyme (Homo sapiens (Human), UniProt Q13822); assay: ATX enzyme activity inhibition assay; type: biochemical; settings: 16:0-LPC substrate, Amplex UltraRed fluorescence
Experimental: The tested compounds were dissolved with dimethyl sulfoxide (DMSO) to prepare 20 mM of stock solutions, the stock solutions were subjected to 4-fold gradient dilutions with DMSO, with the initial concentration of 20 µM and a total of 8 concentration gradients. 20 nL of diluted compound was transferred to a 384-well plate using Echo 550 and 5 µL of ATX enzyme solution formulated with 4 × Tris-HCl reaction buffer to the well, then the 384-well plate was centrifuged at 1000 rpm for 1 min and […] pre-incubated at room temperature for 15 min. Subsequently, 5 µL of 16:0-LPC foumulated with the above 4 × reaction buffer and 10 µL of assay solution containng 2 × Amplex UltraRed reagent, choline oxidase and horseradish peroxidase (HRP) foumulated with the same reaction buffer were added to each well, then the 384-well plate was centrifugated at 1000 rpm for 1 min. The fluorescence signals were read at an excitation wavelength of 530 nm and an emission wavelength of 590 nm by Synergy 2 microplate reader. The inhibition rate of the compound against enzyme reaction was calculated according to the fluorescence intensity ratio, and IC50 of the compound was analysed and calculated by GraphPad Prism 5 software.

[3] = Rat pharmacokinetic study; type: in vivo, SD rat; settings: for half-life: read-out: t½ (converted)
Experimental: SD rat pharmacokinetic study was performed on several compounds in Examples of the present disclosure through a single intravenous injection (IV, at a dose of 2 mg/kg) and a single oral administration (PO, at a dose of 10 mg/kg), and blood samples were taken before administration and 5 min, 15 min, 30 min, 1 h, 2 h, 4 h, 8 h, 12 h and 24 h after administration, respectively, to determine the plasma concentration of the compound for assay. The pharmacokinetic data of control compound and the compounds in Examples 17, 26, 28 and 29 of the present disclosure in rat plasma are shown in Tables 4-8.

[4] = target: hERG potassium channel (Homo sapiens (Human), UniProt Q12809); assay: hERG inhibition assay (manual whole-cell patch clamp); type: cell-based; settings: hERG tail current, stable transfected cell line
Sequence of hERG potassium channel (Q12809 whole entry): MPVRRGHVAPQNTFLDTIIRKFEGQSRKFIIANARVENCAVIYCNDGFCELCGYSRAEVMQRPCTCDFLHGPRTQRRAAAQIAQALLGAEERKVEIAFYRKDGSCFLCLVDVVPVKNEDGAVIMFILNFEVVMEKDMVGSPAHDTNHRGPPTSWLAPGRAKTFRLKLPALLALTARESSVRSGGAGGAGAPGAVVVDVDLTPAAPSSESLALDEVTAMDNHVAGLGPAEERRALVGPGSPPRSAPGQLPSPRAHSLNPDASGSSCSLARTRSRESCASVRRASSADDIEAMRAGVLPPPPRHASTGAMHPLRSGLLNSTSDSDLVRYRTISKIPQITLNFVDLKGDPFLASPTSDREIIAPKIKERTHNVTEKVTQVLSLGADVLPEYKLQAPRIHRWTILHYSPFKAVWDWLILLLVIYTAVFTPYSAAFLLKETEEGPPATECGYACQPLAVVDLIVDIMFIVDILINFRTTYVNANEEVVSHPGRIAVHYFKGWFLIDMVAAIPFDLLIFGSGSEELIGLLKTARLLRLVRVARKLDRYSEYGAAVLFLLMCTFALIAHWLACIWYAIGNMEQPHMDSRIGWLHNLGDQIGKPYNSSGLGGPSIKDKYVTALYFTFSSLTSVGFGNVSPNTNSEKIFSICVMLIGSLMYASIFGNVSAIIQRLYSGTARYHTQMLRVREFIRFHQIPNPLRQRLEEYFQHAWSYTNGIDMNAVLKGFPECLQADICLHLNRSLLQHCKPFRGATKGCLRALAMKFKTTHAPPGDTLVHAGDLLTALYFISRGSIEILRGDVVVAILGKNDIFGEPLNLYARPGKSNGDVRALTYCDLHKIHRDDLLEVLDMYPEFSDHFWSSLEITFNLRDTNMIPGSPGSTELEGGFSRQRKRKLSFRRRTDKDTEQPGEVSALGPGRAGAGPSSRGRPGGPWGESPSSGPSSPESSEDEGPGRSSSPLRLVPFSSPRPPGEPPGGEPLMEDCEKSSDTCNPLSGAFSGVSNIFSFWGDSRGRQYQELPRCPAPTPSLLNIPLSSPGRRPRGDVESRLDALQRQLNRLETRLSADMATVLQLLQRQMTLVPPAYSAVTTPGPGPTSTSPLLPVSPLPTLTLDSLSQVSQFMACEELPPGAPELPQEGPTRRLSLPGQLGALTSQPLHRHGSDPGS
Experimental: Rapid activation of human delayed rectifier potassium current (IKr) is mainly mediated by hERG ion channel and participates in repolarization of human cardiomyocytes. Blocking this current with drugs will lead to QT interval prolongation syndrome in clinical practice, which will easily induce acute arrhythmia and even sudden death.
Experimental method: a whole-cell patch clamp technique was used to record hERG current. The cell suspension was added to a small petri dish and placed on an inverted microscope stage. After adherence, the cells were perfused with extracellular fluid at a recommended flow rate of 1-2 mL/min. The glass microelectrode was drawn by a microelectrode drawing instrument in two steps, and the resistance thereof after filling the electrode interior liquid was 2-5 MΩ. After the whole-cell recording mode was set up, the clamping potential was maintained at -80 mV. The depolarization voltage was applied to +60 mV for 850 ms, and then repolarized to -50 mV for 1275 ms to induce hERG tail current. Such a set of pulse programming was repeated every 15 seconds throughout the experiment. After the current was stable, the drug was administered by extracellular continuous perfusion from low concentration to high concentration. Starting from low concentration, perfusion continued until the drug effect was stable, then perfusion at the next concentration was performed. In this experiment, the blocking effect on hERG tail current was tested for the test objects at different concentrations and the positive control (N ≥ 2). Then, stimulus generation and signal acquisition were carried out by PatchMaster software; and a signal was amplified with a patch clamp amplifier. FitMaster, EXCEL, Graphpad Prism, SPSS 21.0, etc. were used for further data analysis and curve fitting. In data processing, when determining the blocking effect on hERG, the peak and baseline of tail current were calibrated. The inhibition rate (IR) of tail current was used to express the effect of the compounds at different concentrations.
IR = 100% × (peak of tail current before administration - peak of tail current after administration)/peak of tail current before administration.
IC50 was obtained by fitting the Hill equation (if applicable), if the maximum inhibition rate of the test object at all concentrations was less than 50%, then IC50 was not calculated. [00500]

| IC50 [2] [nM] | Compound | further results |
| --- | --- | --- |
| 3.8 | CCN(c1nc(-c2ccc(F)cc2)c(C#N)s1)c1c2nc(-c3cnc(N4CC[C@@H](O)C4)nc3)ccc2nn1CC [Example 28, (R)-2-(ethyl(2-ethyl-5-(2-(3-hydroxypyrrolidin-1-yl)pyrimidin-5-yl)-2H-pyrazolo[4,3-b]pyridin-3-yl)amino)-4-(4-fluorophenyl)thiazole-5-carbonitrile] | IC50 shift at 10 min [1]: 1.28; Cl_F_pred ([3]; IV 2 mg/kg): 2.33 mL/min/kg; Cl_F_pred ([3]; PO 10 mg/kg): 10 mL/min/kg; F ([3]; PO 10 mg/kg vs IV 2 mg/kg): 25.9%; AUC(0-inf) ([3]; SD, plasma, IV 2 mg/kg): 14100 ng·h/mL; AUC(0-t) ([3]; SD, plasma, IV 2 mg/kg): 13900 ng·h/mL; Cmax ([3]; SD, plasma, IV 2 mg/kg): 4380 ng/mL; half-life ([3]; SD, plasma, IV 2 mg/kg): 4.1 h; AUC(0-inf) ([3]; SD, plasma, PO 10 mg/kg): 18600 ng·h/mL; AUC(0-t) ([3]; SD, plasma, PO 10 mg/kg): 18000 ng·h/mL; Cmax ([3]; SD, plasma, PO 10 mg/kg): 1720 ng/mL; Tmax ([3]; SD, plasma, PO 10 mg/kg): 4 h; half-life ([3]; SD, plasma, PO 10 mg/kg): 4.2 h |
| 13 | CCc1nc2ccc(-c3cnc(CC(=O)N4CC[C@@H](O)C4)cn3)cn2c1N(C)c1nc(-c2ccc(F)cc2)c(C#N)s1 [Example 13, (R)-2-((2-ethyl-6-(5-(2-(3-hydroxypyrrolidin-1-yl)-2-oxoethyl)pyrazin-2-yl)imidazo[1,2-a]pyridin-3-yl)(methyl)amino)-4-(4-fluorophenyl)thiazole-5-carbonitrile] |  |
| 29 | CCc1nc2ccc(-c3ccc(CC(=O)N4CC(O)C4)nc3C)cn2c1N(C)c1nc(-c2ccc(F)cc2)c(C#N)s1 [Example 6, 2-((2-ethyl-6-(6-(2-(3-hydroxyazetidin-1-yl)-2-oxoethyl)-2-methylpyridin-3-yl)imidazo[1,2-a]pyridin-3-yl)(methyl)amino)-4-(4-fluorophenyl)thiazole-5-carbonitrile] |  |
| 4.6 | CCN(c1nc(-c2ccc(F)cc2)c(C#N)s1)c1c2nc(-c3cnc(N4CC[C@H](O)C4)nc3)ccc2nn1CC [Example 27, (S)-2-(ethyl(2-ethyl-5-(2-(3-hydroxypyrrolidin-1-yl)pyrimidin-5-yl)-2H-pyrazolo[4,3-b]pyridin-3-yl)amino)-4-(4-fluorophenyl)thiazole-5-carbonitrile] | IC50 [4]: > 30000 nM; IC50 shift at 10 min [1]: 0.63 |
| 29 | CCc1nc2ccc(-c3ccc(CC(=O)N4CC(O)C4)nc3)cn2c1N(C)c1nc(-c2ccc(F)cc2)c(C#N)s1 [Example 2, 2-((2-ethyl-6-(6-(2-(3-hydroxyazetidin-1-yl)-2-oxoethyl)pyridin-3-yl)imidazo[1,2-a]pyridin-3-yl)(methyl)amino)-4-(4-fluorophenyl)thiazole-5-carbonitrile] |  |
| 18 | CCc1nc2ccc(-c3ncc(CC(=O)N4CC(O)C4)cc3F)cn2c1N(C)c1nc(-c2ccc(F)cc2)c(C#N)s1 [Example 10, 2-((2-ethyl-6-(3-fluoro-5-(2-(3-hydroxyazetidin-1-yl)-2-oxoethyl)pyridin-2-yl)imidazo[1,2-a]pyridin-3-yl)(methyl)amino)-4-(4-fluorophenyl)thiazole-5-carbonitrile] |  |
| 30 | CCc1nc2ccc(-c3ccc(CC(=O)N4CC(O)C4)cc3)cn2c1N(C)c1nc(-c2ccc(F)cc2)c(C#N)s1 [Example 1, 2-((2-ethyl-6-(4-(2-(3-hydroxyazetidin-1-yl)-2-oxoethyl)phenyl)imidazo[1,2-a]pyridin-3-yl)(methyl)amino)-4-(4-fluorophenyl)thiazole-5-carbonitrile] |  |
| 19 | CCc1nc2ccc(-c3cnc(CC(=O)N4CC(CO)C4)cn3)cn2c1N(C)c1nc(-c2ccc(F)cc2)c(C#N)s1 [Example 12, 2-((2-ethyl-6-(5-(2-(3-(hydroxymethyl)azetidin-1-yl)-2-oxoethyl)pyrazin-2-yl)imidazo[1,2-a]pyridin-3-yl)(methyl)amino)-4-(4-fluorophenyl)thiazole-5-carbonitrile] |  |
| 45 | CCc1nc2ccc(-c3cnc(N(C)S(C)(=O)=O)nc3)cn2c1N(CC)c1nc(-c2ccc(F)cc2)c(C#N)s1 [Example 20, N-(5-(3-((5-cyano-4-(4-fluorophenyl)thiazol-2-yl)(ethyl)amino)-2-ethylimidazo[1,2-a]pyridin-6-yl)pyrimidin-2-yl)-N-methylmethanesulfonamide] |  |
| 21 | CCc1nc2ccc(-c3cnc(CC(=O)N4CC(O)C4)cn3)cn2c1N(C)c1nc(-c2ccc(F)cc2)c(C#N)s1 [Example 4, 2-((2-ethyl-6-(5-(2-(3-hydroxyazetidin-1-yl)-2-oxoethyl)pyrazin-2-yl)imidazo[1,2-a]pyridin-3-yl)(methyl)amino)-4-(4-fluorophenyl)thiazole-5-carbonitrile] | IC50 shift at 10 min [1]: 1.04 |
| 25 | CCc1nc2ccc(-c3ccc(CC(=O)N4CC(O)C4)cn3)cn2c1N(C)c1nc(-c2ccc(F)cc2)c(C#N)s1 [Example 7, 2-((2-ethyl-6-(5-(2-(3-hydroxyazetidin-1-yl)-2-oxoethyl)pyridin-2-yl)imidazo[1,2-a]pyridin-3-yl)(methyl)amino)-4-(4-fluorophenyl)thiazole-5-carbonitrile] |  |
| 4.4 | CCc1nc2ccc(-c3cnc(C(=O)N4CC(O)C4)cn3)cn2c1N(C)c1nc(-c2ccc(F)cc2)c(C#N)s1 [Example 8, 2-((2-ethyl-6-(5-(3-hydroxyazetidin-1-carbonyl)pyrazin-2-yl)imidazo[1,2-a]pyridin-3-yl)(methyl)amino)-4-(4-fluorophenyl)thiazole-5-carbonitrile] |  |
| 12 | CCN(c1nc(-c2ccc(F)cc2)c(C#N)s1)c1c2nc(-c3cnc(N4CC(OC(C)=O)C4)nc3)ccc2nn1CC [Example 25, 1-(5-(3-((5-cyano-4-(4-fluorophenyl)thiazol-2-yl)(ethyl)amino)-2-ethyl-2H-pyrazolo[4,3-b]pyridin-5-yl)pyrimidin-2-yl)azetidin-3-yl acetate] |  |
| 40 | CCc1nc2ccc(-c3cnc(C(=O)NC4CC5(CNC5)C4)cn3)cn2c1N(C)c1nc(-c2ccc(F)cc2)c(C#N)s1 [Example 15, 5-(3-((5-cyano-4-(4-fluorophenyl)thiazol-2-yl)(methyl)amino)-2-ethylimidazo[1,2-a]pyridin-6-yl)-N-(2-azaspiro[3.3]heptan-6-yl)pyrazin-2-carboxamide] |  |
| 17 | CCc1nc2ccc(-c3cnc(N4CCCS4(=O)=O)cn3)cn2c1N(CC)c1nc(-c2ccc(F)cc2)c(C#N)s1 [Example 19, 2-((6-(5-(1,1-dioxidoisothiazolidin-2-yl)pyrazin-2-yl)-2-ethylimidazo[1,2-a]pyridin-3-yl)(ethyl)amino)-4-(4-fluorophenyl)thiazole-5-carbonitrile] |  |
| 5.2 | CCc1nc2ccc(-c3cnc(CC(=O)N4CC(O)C4)c(F)c3)cn2c1N(C)c1nc(-c2ccc(F)cc2)c(C#N)s1 [Example 3, 2-((2-ethyl-6-(5-fluoro-6-(2-(3-hydroxyazetidin-1-yl)-2-oxoethyl)pyridin-3-yl)imidazo[1,2-a]pyridin-3-yl)(methyl)amino)-4-(4-fluorophenyl)thiazole-5-carbonitrile] |  |
